The source made the active and inactive calls. No cut-off for these calls is given here.
Experiments:
[1] = target: T1, Protein cereblon/Histone-lysine N-methyltransferase NSD2 (Homo sapiens) (UniProt O96028+Q96SW2); assay: PROTAC activity at CRBN/NSD2 in human RPMI 8402 cells assessed as induction of NSD2 degradation incubated for 24 hrs by immunoblot analysis; assay type: cell-based; conditions: dose 0.001-10 µM
[2] = target: T1, Protein cereblon/Histone-lysine N-methyltransferase NSD2 (Homo sapiens); assay: PROTAC activity at CRBN/NSD2 in human RPMI 8402 cells assessed as induction of NSD2 degradation at 2 uM measured after 4 to 8 hrs hrs by immunoblot analysis; assay type: cell-based; conditions: time 4-8 hrs
[3] = target: T1, Protein cereblon/Histone-lysine N-methyltransferase NSD2 (Homo sapiens); assay: PROTAC activity at CRBN/NSD2 in human RPMI 8402 cells assessed as induction of NSD2 degradation at 0.5 to 2 uM measured after 24 hrs by immunoblot analysis; assay type: cell-based; conditions: dose 0.5-2 µM
[4] = target: T1, Protein cereblon/Histone-lysine N-methyltransferase NSD2 (Homo sapiens); assay: PROTAC activity at CRBN/NSD2 in human SEM cells assessed as induction of NSD2 degradation at 0.5 to 2 uM measured after 24 hrs by immunoblot analysis; assay type: cell-based; conditions: dose 0.5-2 µM
[5] = target: T1, Protein cereblon/Histone-lysine N-methyltransferase NSD2 (Homo sapiens); assay: PROTAC activity at CRBN/NSD2 in human RPMI 8402 cells assessed as induction of NSD2 degradation at 2 uM measured after 12 to 24 hrs by immunoblot analysis; assay type: cell-based; conditions: time 12-24 hrs
[6] = target: T1, Protein cereblon/Histone-lysine N-methyltransferase NSD2 (Homo sapiens); assay: PROTAC activity at CRBN/NSD2 in human RPMI 8402 cells assessed as induction of NSD2 degradation at 2 uM pretreated with thalidomide for 2 hrs followed by compound addition and measured after 6 to 12 hrs by Western blot analysis; assay type: cell-based; conditions: time 6-12 hrs
[7] = target: T1, Protein cereblon/Histone-lysine N-methyltransferase NSD2 (Homo sapiens); assay: PROTAC activity at CRBN/NSD2 in human SEM cells assessed as induction of NSD2 degradation at 2 uM incubated for 12 hrs by immunoblot analysis; assay type: cell-based
[8] = target: T1, Protein cereblon/Histone-lysine N-methyltransferase NSD2 (Homo sapiens); assay: PROTAC activity at CRBN/NSD2 in human SEM cells assessed as decrease in NSD2 level at 2 uM measured after 4 hrs by TMT-labeled quantitative proteomics assay; assay type: cell-based
[9] = target: Protein cereblon/Histone-lysine N-methyltransferase, H3 lysine-36 specific (Homo sapiens) (UniProt Q96L73+Q96SW2); assay: PROTAC activity at CRBN/NSD1 in human SEM cells assessed as decrease in NSD1 level at 2 uM measured upto 8 hrs by immunoblot analysis; assay type: cell-based
[10] = target: Protein cereblon/Histone-lysine N-methyltransferase NSD3 (Homo sapiens) (UniProt Q9BZ95+Q96SW2); assay: PROTAC activity at CRBN/NSD3 in human SEM cells assessed as decrease in NSD3 level at 2 uM measured upto 8 hrs by immunoblot analysis; assay type: cell-based
[11] = target: Cereblon/Ikaros (Homo sapiens) (UniProt Q96SW2+Q13422); assay: PROTAC activity at CRBN/IKZF1 in human SEM cells assessed as decrease in IKZF1 level at 2 uM measured upto 8 hrs by immunoblot analysis; assay type: cell-based
[12] = target: Protein cereblon/Zinc finger protein Aiolos (Homo sapiens) (UniProt Q96SW2+Q9UKT9); assay: PROTAC activity at CRBN/IKZF3 in human SEM cells assessed as decrease in IKZF3 level at 2 uM measured upto 8 hrs by immunoblot analysis; assay type: cell-based
[13] = target: Cereblon/Casein kinase I alpha (Homo sapiens) (UniProt P48729+Q96SW2); assay: PROTAC activity at CRBN/CK1alpha in human SEM cells assessed as decrease in CK1alpha level at 2 uM measured upto 8 hrs by immunoblot analysis; assay type: cell-based
[14] = target: T2, Protein cereblon/Eukaryotic peptide chain release factor GTP-binding subunit ERF3A (Homo sapiens) (UniProt Q96SW2+P15170); assay: PROTAC activity at CRBN/GSPT1 in human RPMI 8402 cells assessed as decrease in GSPT1 level at 2 uM measured after 12 hrs by TMT-labeled quantitative proteomics assay; assay type: cell-based
[15] = target: T2, Protein cereblon/Eukaryotic peptide chain release factor GTP-binding subunit ERF3A (Homo sapiens); assay: PROTAC activity at CRBN/GSPT1 in human RPMI 8402 cells assessed as decrease in GSPT1 level at 2 uM by immunoblot analysis; assay type: cell-based
[16] = target: T2, Protein cereblon/Eukaryotic peptide chain release factor GTP-binding subunit ERF3A (Homo sapiens); assay: PROTAC activity at CRBN/GSPT1 in human VCaP cells assessed as decrease in GSPT1 level at 2 uM measured upto 8 hrs by immunoblot analysis; assay type: cell-based
[17] = target: T2, Protein cereblon/Eukaryotic peptide chain release factor GTP-binding subunit ERF3A (Homo sapiens); assay: PROTAC activity at CRBN/GSPT1 in human SEM cells assessed as decrease in GSPT1 level at 2 uM measured after 12 hrs by immunoblot analysis; assay type: cell-based
[18] = target: T1, Protein cereblon/Histone-lysine N-methyltransferase NSD2 (Homo sapiens); assay: PROTAC activity at CRBN/NSD2 in human SEM cells assessed as downregulation of H3K36Me2 level at 2 uM measured after 8 hrs hrs by immunoblot analysis; assay type: cell-based
[19] = target: T1, Protein cereblon/Histone-lysine N-methyltransferase NSD2 (Homo sapiens); assay: PROTAC activity at CRBN/NSD2 in human RPMI 8402 cells assessed as downregulation of H3K36Me2 level at 2 uM measured upto 24 hrs hrs by immunoblot analysis; assay type: cell-based
RPMI 8402 [20] = assay: Cytotoxicity against human RPMI 8402 cells assessed as inhibition of cell growth at 2 uM measured after 9 days by Celltiter-glo assay; assay type: functional, cell-based; conditions: time 9.0 day
RPMI 8402 [21] = assay: Inhibition of colony formation in human RPMI 8402 cells at 2 uM administered every three days for 30 days by iodonitrotetrazolium chloride staining based microscopy analysis; assay type: functional, cell-based; conditions: time 30.0 day
SEM cells [22] = assay: Downregulation of CD38 gene expression in human SEM cells measured after 14 days by RNA sequencing assay; assay type: functional, cell-based; conditions: time 14.0 day
SEM cells [23] = assay: Downregulation of CD9 gene expression in human SEM cells measured after 14 days by RNA sequencing assay; assay type: functional, cell-based; conditions: time 14.0 day
SEM cells [24] = assay: Cytotoxicity against human SEM cells harbouring NSD2 assessed as inhibition of cell growth at 2 uM measured after 9 days by Celltiter-glo assay; assay type: functional, cell-based; conditions: time 9.0 day
[25] = target: T1, Protein cereblon/Histone-lysine N-methyltransferase NSD2 (Homo sapiens); assay: In vivo PROTAC activity at CRBN/NSD2 in SCID mouse xenografted with human SEM cells assessed as downregulation of NSD2 level at 60 mg/kg, iv for 5 days by Western blot analysis; assay type: functional, organism-based; conditions: time 5.0 day
[26] = target: T1, Protein cereblon/Histone-lysine N-methyltransferase NSD2 (Homo sapiens); assay: In vivo PROTAC activity at CRBN/NSD2 in SCID mouse xenografted with human 22Rv1 cells assessed as downregulation of NSD2 level at 60 mg/kg, iv for 5 days by Western blot analysis; assay type: functional, organism-based; conditions: CWR22R, time 5.0 day
[27] = target: T1, Protein cereblon/Histone-lysine N-methyltransferase NSD2 (Homo sapiens); assay: In vivo PROTAC activity at CRBN/NSD2 in SCID mouse xenografted with human 22Rv1 cells assessed as downregulation of NSD2 level at 60 mg/kg, ip for 5 days by Western blot analysis; assay type: functional, organism-based; conditions: CWR22R, time 5.0 day
[28] = target: T1, Protein cereblon/Histone-lysine N-methyltransferase NSD2 (Homo sapiens); assay: In vivo PROTAC activity at CRBN/NSD2 in SCID mouse xenografted with human SEM cells assessed as downregulation of NSD2 level at 60 mg/kg, iv for 5 days by immunohistochemical analysis; assay type: functional, organism-based; conditions: time 5.0 day
[29] = target: T1, Protein cereblon/Histone-lysine N-methyltransferase NSD2 (Homo sapiens); assay: In vivo PROTAC activity at CRBN/NSD2 in SCID mouse xenografted with human 22Rv1 cells assessed as downregulation of NSD2 level at 60 mg/kg, iv for 5 days by immunohistochemical analysis; assay type: functional, organism-based; conditions: CWR22R, time 5.0 day
[30] = target: T1, Protein cereblon/Histone-lysine N-methyltransferase NSD2 (Homo sapiens); assay: In vivo PROTAC activity at CRBN/NSD2 in SCID mouse xenografted with human 22Rv1 cells assessed as downregulation of NSD2 level at 60 mg/kg, ip for 5 days by immunohistochemical analysis; assay type: functional, organism-based; conditions: CWR22R, time 5.0 day

T1 sequence (O96028 whole entry, looked up): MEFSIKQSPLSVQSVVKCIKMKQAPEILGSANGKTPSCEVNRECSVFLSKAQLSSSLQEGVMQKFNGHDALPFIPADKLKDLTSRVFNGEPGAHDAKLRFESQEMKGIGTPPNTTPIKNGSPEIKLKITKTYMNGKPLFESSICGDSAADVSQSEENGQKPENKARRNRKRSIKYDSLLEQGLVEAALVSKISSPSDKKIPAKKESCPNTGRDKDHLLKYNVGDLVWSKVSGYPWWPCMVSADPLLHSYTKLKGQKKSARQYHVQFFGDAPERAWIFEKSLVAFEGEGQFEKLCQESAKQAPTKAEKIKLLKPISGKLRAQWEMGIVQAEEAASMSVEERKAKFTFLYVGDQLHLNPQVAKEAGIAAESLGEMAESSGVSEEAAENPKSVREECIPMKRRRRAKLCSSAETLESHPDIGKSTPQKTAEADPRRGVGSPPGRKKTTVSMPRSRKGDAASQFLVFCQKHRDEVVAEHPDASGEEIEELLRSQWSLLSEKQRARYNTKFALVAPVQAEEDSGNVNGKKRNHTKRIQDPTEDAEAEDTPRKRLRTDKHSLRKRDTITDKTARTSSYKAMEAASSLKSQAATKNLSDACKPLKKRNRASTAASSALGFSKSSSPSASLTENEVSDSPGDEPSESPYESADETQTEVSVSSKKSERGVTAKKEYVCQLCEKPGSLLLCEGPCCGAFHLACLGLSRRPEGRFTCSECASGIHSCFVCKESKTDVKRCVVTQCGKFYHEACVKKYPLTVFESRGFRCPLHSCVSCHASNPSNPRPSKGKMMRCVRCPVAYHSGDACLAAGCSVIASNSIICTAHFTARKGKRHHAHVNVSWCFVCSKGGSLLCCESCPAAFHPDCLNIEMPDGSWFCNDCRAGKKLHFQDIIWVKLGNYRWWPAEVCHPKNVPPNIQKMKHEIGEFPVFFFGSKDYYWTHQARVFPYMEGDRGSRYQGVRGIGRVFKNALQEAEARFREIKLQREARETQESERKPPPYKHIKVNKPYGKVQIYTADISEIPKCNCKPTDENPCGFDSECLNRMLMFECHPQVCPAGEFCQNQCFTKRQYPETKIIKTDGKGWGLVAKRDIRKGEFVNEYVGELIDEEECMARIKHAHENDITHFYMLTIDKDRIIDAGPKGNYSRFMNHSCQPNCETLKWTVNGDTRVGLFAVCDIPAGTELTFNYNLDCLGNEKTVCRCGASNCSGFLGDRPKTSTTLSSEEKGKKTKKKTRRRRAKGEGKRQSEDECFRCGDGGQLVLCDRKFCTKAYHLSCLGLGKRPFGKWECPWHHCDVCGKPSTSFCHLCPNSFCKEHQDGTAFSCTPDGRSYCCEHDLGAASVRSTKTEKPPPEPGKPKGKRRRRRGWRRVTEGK
T1 sequence (Q96SW2 whole entry, looked up): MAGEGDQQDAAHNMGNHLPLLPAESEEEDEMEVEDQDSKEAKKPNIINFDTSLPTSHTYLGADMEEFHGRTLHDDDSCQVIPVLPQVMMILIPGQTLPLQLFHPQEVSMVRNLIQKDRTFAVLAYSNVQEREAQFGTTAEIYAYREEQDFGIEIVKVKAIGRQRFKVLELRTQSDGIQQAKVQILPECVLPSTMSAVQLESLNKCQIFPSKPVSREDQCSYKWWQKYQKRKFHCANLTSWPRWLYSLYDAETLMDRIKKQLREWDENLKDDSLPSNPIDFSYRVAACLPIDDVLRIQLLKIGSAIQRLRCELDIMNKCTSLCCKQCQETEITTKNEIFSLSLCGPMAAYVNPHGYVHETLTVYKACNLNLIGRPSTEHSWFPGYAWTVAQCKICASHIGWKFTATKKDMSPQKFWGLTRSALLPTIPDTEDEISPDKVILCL
T2 sequence (P15170 whole entry, looked up): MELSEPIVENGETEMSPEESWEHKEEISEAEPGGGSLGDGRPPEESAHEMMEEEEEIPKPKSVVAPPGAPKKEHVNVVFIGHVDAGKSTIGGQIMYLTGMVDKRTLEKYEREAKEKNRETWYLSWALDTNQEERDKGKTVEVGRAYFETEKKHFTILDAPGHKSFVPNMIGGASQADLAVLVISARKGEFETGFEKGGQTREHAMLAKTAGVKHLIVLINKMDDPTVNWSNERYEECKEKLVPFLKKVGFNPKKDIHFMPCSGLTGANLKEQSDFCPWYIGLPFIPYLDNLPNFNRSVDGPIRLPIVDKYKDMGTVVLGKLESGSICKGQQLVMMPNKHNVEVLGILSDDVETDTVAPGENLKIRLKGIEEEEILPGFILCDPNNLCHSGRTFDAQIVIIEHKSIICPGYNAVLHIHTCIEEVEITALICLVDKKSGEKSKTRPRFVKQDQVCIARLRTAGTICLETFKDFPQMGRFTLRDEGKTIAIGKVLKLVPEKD
T2 sequence (Q96SW2 whole entry, looked up): as the sequence (Q96SW2 whole entry, looked up) above
Sequence of Cereblon/Casein kinase I alpha (Homo sapiens) (P48729 2-337 limits assumed): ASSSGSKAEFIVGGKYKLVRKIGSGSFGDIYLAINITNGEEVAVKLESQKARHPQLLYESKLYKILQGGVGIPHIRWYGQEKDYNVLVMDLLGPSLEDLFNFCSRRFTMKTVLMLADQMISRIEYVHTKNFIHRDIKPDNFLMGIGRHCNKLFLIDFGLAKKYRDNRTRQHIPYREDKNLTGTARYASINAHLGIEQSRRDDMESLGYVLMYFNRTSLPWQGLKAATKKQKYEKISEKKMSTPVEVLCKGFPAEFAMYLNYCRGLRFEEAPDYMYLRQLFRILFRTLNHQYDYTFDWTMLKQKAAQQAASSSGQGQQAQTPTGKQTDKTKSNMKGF
Sequence of Cereblon/Casein kinase I alpha (Homo sapiens) (Q96SW2 whole entry partner): as the sequence (Q96SW2 whole entry, looked up) above
Sequence of Protein cereblon/Zinc finger protein Aiolos (Homo sapiens) (Q96SW2 whole entry, looked up): as above
Sequence of Protein cereblon/Zinc finger protein Aiolos (Homo sapiens) (Q9UKT9 whole entry, looked up): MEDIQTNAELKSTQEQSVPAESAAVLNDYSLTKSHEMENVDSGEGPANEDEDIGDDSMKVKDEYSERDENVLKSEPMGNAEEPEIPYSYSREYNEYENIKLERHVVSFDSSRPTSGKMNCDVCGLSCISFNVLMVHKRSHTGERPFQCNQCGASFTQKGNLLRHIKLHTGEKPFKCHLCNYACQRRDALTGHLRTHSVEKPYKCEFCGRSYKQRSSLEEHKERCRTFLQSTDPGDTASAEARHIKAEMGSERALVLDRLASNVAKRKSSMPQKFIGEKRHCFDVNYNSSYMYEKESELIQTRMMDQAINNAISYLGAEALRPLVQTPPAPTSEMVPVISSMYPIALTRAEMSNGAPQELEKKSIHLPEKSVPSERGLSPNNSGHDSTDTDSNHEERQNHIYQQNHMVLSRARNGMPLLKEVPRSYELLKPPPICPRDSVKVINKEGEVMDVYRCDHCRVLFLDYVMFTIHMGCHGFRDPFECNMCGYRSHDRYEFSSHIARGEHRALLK
Sequence of Protein cereblon/Histone-lysine N-methyltransferase NSD3 (Homo sapiens) (Q96SW2 whole entry, looked up): as the sequence (Q96SW2 whole entry, looked up) above
Sequence of Protein cereblon/Histone-lysine N-methyltransferase NSD3 (Homo sapiens) (Q9BZ95 whole entry, looked up): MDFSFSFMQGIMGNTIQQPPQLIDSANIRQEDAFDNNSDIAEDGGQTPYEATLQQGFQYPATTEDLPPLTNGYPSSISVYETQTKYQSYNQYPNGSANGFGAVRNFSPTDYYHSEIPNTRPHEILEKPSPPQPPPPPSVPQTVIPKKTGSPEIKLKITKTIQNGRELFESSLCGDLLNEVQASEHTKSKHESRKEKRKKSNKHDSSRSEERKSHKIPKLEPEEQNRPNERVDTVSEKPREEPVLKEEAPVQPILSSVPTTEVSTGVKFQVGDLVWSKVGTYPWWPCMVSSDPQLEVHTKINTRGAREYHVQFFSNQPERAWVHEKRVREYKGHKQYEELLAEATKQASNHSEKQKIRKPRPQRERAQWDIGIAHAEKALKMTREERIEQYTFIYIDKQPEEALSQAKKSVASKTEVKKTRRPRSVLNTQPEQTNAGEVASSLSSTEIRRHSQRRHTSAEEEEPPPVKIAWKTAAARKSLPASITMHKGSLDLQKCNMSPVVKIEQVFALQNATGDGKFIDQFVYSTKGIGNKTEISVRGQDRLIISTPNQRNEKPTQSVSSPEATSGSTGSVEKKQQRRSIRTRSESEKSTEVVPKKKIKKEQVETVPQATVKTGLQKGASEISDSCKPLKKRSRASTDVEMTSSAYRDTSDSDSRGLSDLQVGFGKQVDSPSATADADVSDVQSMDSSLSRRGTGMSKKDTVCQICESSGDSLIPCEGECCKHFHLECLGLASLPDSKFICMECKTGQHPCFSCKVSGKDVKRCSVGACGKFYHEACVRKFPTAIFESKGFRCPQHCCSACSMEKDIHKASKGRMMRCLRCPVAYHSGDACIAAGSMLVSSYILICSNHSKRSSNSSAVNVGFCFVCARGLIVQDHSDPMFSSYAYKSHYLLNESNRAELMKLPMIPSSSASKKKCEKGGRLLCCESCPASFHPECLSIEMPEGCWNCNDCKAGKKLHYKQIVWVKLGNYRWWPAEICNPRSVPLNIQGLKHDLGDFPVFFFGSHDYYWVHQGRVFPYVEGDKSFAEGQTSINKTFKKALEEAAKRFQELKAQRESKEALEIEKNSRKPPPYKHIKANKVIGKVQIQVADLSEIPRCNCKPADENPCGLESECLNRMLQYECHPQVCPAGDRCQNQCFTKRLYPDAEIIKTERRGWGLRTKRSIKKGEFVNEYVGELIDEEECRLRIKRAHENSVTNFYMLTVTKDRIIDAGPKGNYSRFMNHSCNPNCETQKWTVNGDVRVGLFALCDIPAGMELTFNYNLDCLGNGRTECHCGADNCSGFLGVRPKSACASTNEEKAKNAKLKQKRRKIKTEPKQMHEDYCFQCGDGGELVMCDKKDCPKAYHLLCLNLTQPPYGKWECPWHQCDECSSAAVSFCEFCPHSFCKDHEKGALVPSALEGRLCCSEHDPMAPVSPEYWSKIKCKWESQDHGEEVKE

O=C1CCC(N2C(=O)c3ccc(N4CCC(NC(=O)c5ccc(NC(=O)c6ccc(CN(C(=O)c7ccc8c(c7)OCC(=O)N8)C7CC7)cc6)cc5)CC4)cc3C2=O)C(=O)N1 (stereo not given)
Activity [1]: Dose-Dependent Effect | Activity [2]: Active | Activity [3]: Active | Activity [4]: Active | Activity [5]: Active | Activity [6]: inactive | Activity [7]: Active | Activity [8]: Active | Activity [9]: inactive | Activity [10]: inactive | Activity [11]: inactive | Activity [12]: inactive | Activity [13]: inactive | Activity [14]: Active | Activity [15]: Active | Activity [16]: inactive | Activity [17]: Active | Activity [18]: Active | Activity [19]: Active | Activity (RPMI 8402 [20]): Active | inhibition (RPMI 8402 [21]): Active | Activity (SEM cells [22]): Active | Activity (SEM cells [23]): Active | Activity (SEM cells [24]): Active | Activity [25]: Active | Activity [26]: Active | Activity [27]: Active | Activity [28]: Active | Activity [29]: Active | Activity [30]: Active

— ChEMBL document CHEMBL5506025, “Discovery of LLC0424 as a Potent and Selective in Vivo NSD2 PROTAC Degrader” (J Med Chem, 2024)
